These results are taken from patent US20070293458A1, “Prevention of nuclear, solar, and other radiation-induced tissue damage” (IP-6 Research Inc., priority 2006, published 2007).

“Also recorded” adds a separate entry of the source.

Common to all, as to assay type: cell-based, human
Test [1] deals with HaCaT cells. The experiment in a line: Annexin V and PI staining, flow cytometry (apoptotic, necrotic, viable cells) after UVB radiation. The note with it: UVB-exposed. Here is the method: FIG. 3. Effect of IP-6 and UVB radiation on cell cycle distribution of HaCaT cells. For annexin V and PI staining cells were either not exposed or exposed to 30 mJ/cm^2 UVB radiation, then either treated with 1.0 mM Na-IP-6 or not treated with IP-6. Eighteen hours later, cells were harvested and double stained with annexin V and PI and analyzed by flow cytometry. The number of cells that are present in apoptosis, necrosis or are viable are represented as percentages; p<0.001, as compared to the group exposed to UVB but not treated with IP-6. The concentration of inositol in the media is 38.8 μM. HaCaT cells were plated in 60 mm tissue culture dishes for 24 hours. The cells were then either not exposed, or exposed, to 30 mJ/cm^2 UVB radiation and treated immediately with 0, 0.5 mM, or 1.0 mM IP-6. Cells were harvested 6 and 18 hours after UVB exposure. 5 μL of RNase (DNase-free) was added to 10^6 cells/mL. The cell suspension was incubated at 37° C. for 30 minutes. The suspension was then chilled on ice (2-8° C.). 100 μL of PI was added to the cell suspension (Cellular DNA flow cytometric analysis kit, Roche Diagnostics, Indianapolis, Ind.). DNA quantitation was performed on the same day by flow cytometry using FACS.
A general note: Flow cytometry measures light scatter and fluorescence of single cells or particles in a stream.

The test system of test [2] is HaCaT cells. The experiment in a line: MTT assay of cell viability and proliferation after UVB radiation. Here is the method:
The human keratinocyte (HaCaT) cells were grown in Dulbecco's Modified Eagle's Medium containing 7 mg/L of inositol (38.8 μM), supplemented with 10% heat-inactivated fetal bovine serum, 1% L-glutamine, and 1% antibiotic (penicillin, streptomycin). Cells were maintained at 37° C. and 5% CO2. Na-IP-6 was diluted from a 100 mM stock solution to the required concentrations (0.05-2.0 mM) using cell culture medium as the diluent. UVB intensities of 15, 30, 60 and 120 mJ/cm^2 were used, which was obtained by varying cell exposure time to UVB light (80% of light output is in 290-320 nm UVB range).
HaCaT cells were grown to approximately 80-90% confluency. 100 μL of 1×10^4 cells/mL HaCaT cells were seeded into each well of four 96-well plates. Cells were treated with IP-6 (0-2.0 mM), and on days 0, 1, 2, and 3, 100 μL of 1 mg/mL of aqueous MTT dissolved in DMEM media was added to each well and plates were placed into the incubator (37° C. and 5% CO2) for 4 hours. 150 μL of DMSO was then added to dissolve the formazan products. The absorbance was read at 540 nm using an EL Ultra Micro-plate Reader. Results were recorded as mean absorbance for each set of groups. […]
To determine if IP-6 protects HaCaT cells from UVB-induced injury, The MTT assay was performed as done above. […] Results were recorded as the mean absorbance for each set of groups.
For orientation: Tetrazolium assays rely on reduction of a dye to a coloured formazan, in cell work by metabolically active cells.

Test [3] has as its system HaCaT cells. In words: Cell cycle distribution by PI flow cytometry after UVB radiation. The protocol: HaCaT cells were plated in 60 mm tissue culture dishes for 24 hours. The cells were then either not exposed, or exposed, to 30 mJ/cm^2 UVB radiation and treated immediately with 0, 0.5 mM, or 1.0 mM IP-6. Cells were harvested 6 and 18 hours after UVB exposure. 5 μL of RNase (DNase-free) was added to 10^6 cells/mL. The cell suspension was incubated at 37° C. for 30 minutes. The suspension was then chilled on ice (2-8° C.). 100 μL of PI was added to the cell suspension (Cellular DNA flow cytometric analysis kit, Roche Diagnostics, Indianapolis, Ind.). DNA quantitation was performed on the same day by flow cytometry using FACS.

The subject of test [4] is caspase-3 activation of HaCaT cells. In words: Fluorometric CaspACE assay of activated caspase-3 activity. The protocol: FIG. 4. Effect of IP-6 and UVB radiation on caspase-3 activation of HaCaT cells. To assess activated caspase-3 activity, cells were either not exposed or exposed to 30 mJ/cm^2 UVB radiation, and then either treated with 1.0 mM Na-IP-6 or not treated with IP-6. Eighteen hours later, cells were harvested and fluorometric CaspACE assays were performed. Activated caspase-3 activity is represented as relative fluorescence units. **Significant at p<0.01, as compared to the group exposed to UVB but not treated with IP-6. The concentration of inositol in the media is 38.8 μM.
HaCaT cells were plated in 60 mm tissue culture dishes for 24 hours. The cells were either exposed to 30 mJ/cm^2 UVB radiation or not exposed. […] 10 μL of sample was then combined with caspase assay buffer (312.5 mM HEPES (pH 7.5), 31.25% sucrose, 0.3125% CHAPS (3-[(3-cholamido-propyl)-dimethyl ammonio]-1 propane-sulfonate, 2% DMSO, 10 mM DTT) containing 50 μM caspase-3 substrate, Ac-DEVD-AMC, in white 96 well microtiter plates. Negative control wells included 2 μL of 2.5 mM specific peptide inhibitor of caspase-3 (Ac-DEVD-CHO). The plate was incubated at 30° C. for 1 hour. The free reaction product, AMC was then measured using a fluorescent plate reader with an excitation wavelength of 360 nm and an emission wavelength of 460 nm. Caspase-3 activity was reported as relative fluorescent intensity of AMC.

Test [5] deals with HaCaT cells. The experiment in a line: Cell attachment (crystal violet absorbance) after UVB radiation. Here is the method:
5×10^4 HaCaT cells were seeded into each well of four 6-well tissue culture plates and incubated at 37° C. and 5% CO2 for 24 hours. One hour before UVB irradiation, two plates were treated with IP-6 (0 and 0.1 mM), one for IP-6 pre-treatment and the other for IP-6 pre-treatment and post-treatment. All four plates were then washed twice with PBS 1×, and a small amount of PBS 1× was added to the wells, which were irradiated at 30 mJ/cm^2. After UVB exposure, PBS was removed from the wells and DMEM media was added to each well. IP-6 (0.05 and 0.1 mM) was then added to the plates labeled no UVB exposure, IP-6 post-treatment, and pre-treatment and post-treatment. The cells were then incubated (37° C. and 5% CO2) for 18 hours. Following incubation, the cells were washed 4 times with PBS 1× (pH 7.4), then fixed with 4.0% formaldehyde for 15 minutes, and stained with 0.5% aqueous crystal violet for at least 5 minutes. Excess crystal violet was washed from the wells and the plates were left to dry. The dried crystal violet residue in each well was then dissolved in 500 μL of 30% acetic acid. The absorbance was read at 595 nm in triplicate in a 96-well plate using an EL Ultra Micro-plate Reader. Additionally, 5×10^4 HaCaT cells were plated into each well of ten 6-well plates as was done above. Before UVB irradiation, cells were washed twice with PBS 1×, and a small amount of PBS 1× was added to the wells. Cells were then exposed to no UVB, or 15, 30, 60, or 120 mJ/cm^2 intensities. Following exposure, cell media was added to the wells and cells were treated with IP-6 (0-2.0 mM). The cells were then incubated at 37° C. and 5% CO2. 18 hours after UVB exposure, cells were fixed with 4% formaldehyde, stained with 0.5% aqueous crystal violet and dissolved with 30% acetic acid as was done above. The absorbance was read in triplicate at 595 nm.

The mark [6] stands for this setting: 0.5 mM IP-6, vs UVB without IP-6.
Setting [7] is: 0.5 and 1.0 mM IP-6, vs UVB without IP-6, p<0.001.

Consider `O=P(O)(O)O[C@H]1[C@H](OP(=O)(O)O)[C@@H](OP(=O)(O)O)[C@H](OP(=O)(O)O)[C@@H](OP(=O)(O)O)[C@H]1OP(=O)(O)O` [IP-6, inositol hexaphosphate], for which, in the test on HaCaT cells [1] (setting [6]), the “percentage of apoptotic cells” value is reported as “significant decrease”. The “percentage of necrotic cells” value with HaCaT cells [1] (setting [6]) is on record as “significant decrease”. Moreover, the “percentage of viable cells” value in the test on HaCaT cells [1] (setting [6]) is “significant increase”. Also, the “apoptotic, necrotic and viable cells, effects relative to 0.5 mM” value in the test on HaCaT cells [1] (1.0 mM IP-6) was “much more pronounced”. The “apoptotic cells, dose dependence” value with HaCaT cells [1] (setting [7]) was “dose-dependent decrease”. In the test on HaCaT cells [1] (setting [7]), the “necrotic cells, dose dependence” value was “dose-dependent decrease”. For the same molecule, in the test with HaCaT cells [1] (setting [7]), the viable cells result is “increase in viable cells”. For the same molecule, the “cell viability and proliferation (MTT)” value with HaCaT cells [2] (UVB 15-120 mJ/cm^2, IP-6 0-2.0 mM added immediately after UVB, read 24 h later, p<0.001) is “increase in cell viability with increasing concentration of IP-6; also recorded: significant increase in relative cell viability with increasing IP-6 concentrations”. The “cell viability (MTT), normal trend” value in the test with HaCaT cells [2] (normal trend with higher IP-6 concentration (without the UVB effect)) was “decrease in cell viability with higher concentration of IP-6”. Also, the “G2M phase, 1.0 mM vs 0.5 mM treatment” value with HaCaT cells [3] (18 hours after UVB 30 mJ/cm^2) is reported as “comparable”. The “effect on different phases of the cell cycle, 6 vs 18 hour” value with HaCaT cells [3] (UVB 30 mJ/cm^2, IP-6 0.5 or 1.0 mM) was “no time-dependent differences”. For the same molecule, the “activated caspase-3 activity” value in test [4] (1.0 mM IP-6, no UVB, 18 hours, vs control group) is “increase in activated caspase-3 activity”; in test [4] (UVB 30 mJ/cm^2 + 1.0 mM IP-6, 18 hours, vs UVB without IP-6, p<0.01), “significantly lowered”. In addition, the cell attachment entry is recorded as “decrease in cell attachment” in the test on HaCaT cells [5] (UVB 15 mJ/cm^2, 18 h, higher IP-6 concentrations (1.0 and 2.0 mM), vs non-IP-6 treated group); “increase in cell attachment” with HaCaT cells [5] (UVB 15 mJ/cm^2, 18 h, lower IP-6 concentrations, vs non-IP-6 treated group); “significant increase in HaCaT cell attachment with increasing concentrations of IP-6” with HaCaT cells [5] (UVB 30 mJ/cm^2, 18 h, vs irradiated cells without IP-6, p<0.01 (FIG. 2: 0.5, 1.0 and 2.0 mM)); “decrease in cell attachment” with HaCaT cells [5] (UVB 60 mJ/cm^2, 18 h, vs irradiated cells without IP-6); “decrease in cell attachment” with HaCaT cells [5] (UVB 120 mJ/cm^2, 18 h, vs irradiated cells without IP-6).
